Assays:
[1] = molecular target: safety screen panel of human pharmacological targets (Homo sapiens, UniProt P31645); experiment: biochemical; conditions: read-out: percent inhibition: 5-HT transporter (h) (antagonist radioligand)
[2] = molecular target: T1, safety screen panel of human pharmacological targets (Homo sapiens, UniProt P32238); experiment: biochemical; conditions: read-out: percent inhibition: CCK1 (CCKA) (h) (agonist radioligand)
T1 sequence (P32238 1-428): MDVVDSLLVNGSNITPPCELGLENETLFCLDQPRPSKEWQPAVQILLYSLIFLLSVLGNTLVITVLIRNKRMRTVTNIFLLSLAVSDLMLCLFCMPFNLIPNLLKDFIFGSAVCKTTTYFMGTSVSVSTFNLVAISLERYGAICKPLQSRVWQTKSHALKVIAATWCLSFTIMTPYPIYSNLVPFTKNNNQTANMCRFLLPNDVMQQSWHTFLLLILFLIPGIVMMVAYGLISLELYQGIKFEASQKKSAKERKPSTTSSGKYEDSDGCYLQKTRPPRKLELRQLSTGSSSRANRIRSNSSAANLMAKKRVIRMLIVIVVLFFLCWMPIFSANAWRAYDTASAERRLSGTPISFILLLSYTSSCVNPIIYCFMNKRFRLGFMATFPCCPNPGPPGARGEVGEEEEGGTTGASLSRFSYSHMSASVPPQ

[3] = molecular target: T2, safety screen panel of human pharmacological targets (Homo sapiens, UniProt P35354); experiment: biochemical; conditions: read-out: percent inhibition: COX2(h})
T2 sequence (P35354 18-604): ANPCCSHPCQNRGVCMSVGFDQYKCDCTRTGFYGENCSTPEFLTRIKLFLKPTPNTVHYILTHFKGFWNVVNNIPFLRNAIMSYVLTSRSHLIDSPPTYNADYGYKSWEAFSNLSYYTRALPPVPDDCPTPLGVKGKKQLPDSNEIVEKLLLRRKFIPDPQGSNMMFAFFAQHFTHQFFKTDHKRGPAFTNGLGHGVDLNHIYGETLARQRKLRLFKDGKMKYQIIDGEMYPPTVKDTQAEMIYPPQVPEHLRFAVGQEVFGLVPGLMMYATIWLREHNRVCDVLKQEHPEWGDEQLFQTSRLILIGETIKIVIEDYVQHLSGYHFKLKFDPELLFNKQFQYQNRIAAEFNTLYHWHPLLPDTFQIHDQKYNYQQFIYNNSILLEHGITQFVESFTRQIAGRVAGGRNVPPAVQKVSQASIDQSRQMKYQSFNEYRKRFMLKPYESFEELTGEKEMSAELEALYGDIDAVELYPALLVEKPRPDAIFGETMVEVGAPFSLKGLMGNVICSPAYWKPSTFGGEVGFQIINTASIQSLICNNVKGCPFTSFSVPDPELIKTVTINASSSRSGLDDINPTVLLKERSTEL

[4] = molecular target: T3, safety screen panel of human pharmacological targets (Homo sapiens, UniProt P08908); experiment: biochemical; conditions: read-out: percent inhibition: 5-HT1A(h) {agonist radiogilgand)
T3 sequence (P08908 1-422): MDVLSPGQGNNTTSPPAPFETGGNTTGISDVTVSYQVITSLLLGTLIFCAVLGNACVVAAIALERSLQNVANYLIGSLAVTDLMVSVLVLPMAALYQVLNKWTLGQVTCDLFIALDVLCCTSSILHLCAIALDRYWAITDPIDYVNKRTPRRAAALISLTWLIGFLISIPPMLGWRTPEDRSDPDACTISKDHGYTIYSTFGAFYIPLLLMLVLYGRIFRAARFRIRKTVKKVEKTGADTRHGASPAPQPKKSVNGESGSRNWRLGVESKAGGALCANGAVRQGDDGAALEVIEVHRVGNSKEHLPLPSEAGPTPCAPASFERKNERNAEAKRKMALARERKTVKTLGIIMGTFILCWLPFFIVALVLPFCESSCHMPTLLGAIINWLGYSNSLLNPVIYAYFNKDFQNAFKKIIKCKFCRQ

[5] = molecular target: safety screen panel of human pharmacological targets (Homo sapiens, UniProt P28223); experiment: biochemical; conditions: read-out: percent inhibition: 5-HT2A (h) (agonist radioligand)
[6] = molecular target: T4, safety screen panel of human pharmacological targets (Homo sapiens, UniProt P11229); experiment: biochemical; conditions: read-out: percent inhibition: M1 (h) (antagonist radioligand)
T4 sequence (P11229 1-460): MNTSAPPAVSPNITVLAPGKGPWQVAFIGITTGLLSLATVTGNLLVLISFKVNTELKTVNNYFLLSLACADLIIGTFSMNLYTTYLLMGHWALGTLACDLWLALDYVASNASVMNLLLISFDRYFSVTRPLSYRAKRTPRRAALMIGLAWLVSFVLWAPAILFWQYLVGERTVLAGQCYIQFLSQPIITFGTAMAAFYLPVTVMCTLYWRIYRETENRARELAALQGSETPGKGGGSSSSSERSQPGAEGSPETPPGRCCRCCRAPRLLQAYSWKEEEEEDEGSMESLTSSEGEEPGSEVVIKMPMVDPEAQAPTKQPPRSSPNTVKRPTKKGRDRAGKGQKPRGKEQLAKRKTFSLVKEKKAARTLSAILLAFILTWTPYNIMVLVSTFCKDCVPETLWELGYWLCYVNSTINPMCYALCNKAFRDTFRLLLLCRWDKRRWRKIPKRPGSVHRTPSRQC

[7] = molecular target: safety screen panel of human pharmacological targets (Homo sapiens, UniProt P41143); experiment: biochemical; conditions: read-out: percent inhibition: delta (DOP) (h) (agonist radioligand)
[8] = molecular target: safety screen panel of human pharmacological targets (Homo sapiens, UniProt P23975); experiment: biochemical; conditions: read-out: percent inhibition: norepinephrine transporter (h) (antagonist radioligand)
[9] = molecular target: safety screen panel of human pharmacological targets (Homo sapiens, UniProt P06239); experiment: biochemical; conditions: read-out: percent inhibition: Lck kinase (h)
[10] = molecular target: safety screen panel of human pharmacological targets (Homo sapiens, UniProt P29274); experiment: biochemical; conditions: read-out: percent inhibition: A2A (h) (agonist radioligand)
[11] = Rat plasma toxicokinetics post VB311 administration at 1,000 mg/kg; conditions: for relative amount in plasma: label = analyte
[12] = 24 hours post VB311 oral gavage

Sequence of safety screen panel of human pharmacological targets (Homo sapiens, UniProt P41143) (P41143 whole entry): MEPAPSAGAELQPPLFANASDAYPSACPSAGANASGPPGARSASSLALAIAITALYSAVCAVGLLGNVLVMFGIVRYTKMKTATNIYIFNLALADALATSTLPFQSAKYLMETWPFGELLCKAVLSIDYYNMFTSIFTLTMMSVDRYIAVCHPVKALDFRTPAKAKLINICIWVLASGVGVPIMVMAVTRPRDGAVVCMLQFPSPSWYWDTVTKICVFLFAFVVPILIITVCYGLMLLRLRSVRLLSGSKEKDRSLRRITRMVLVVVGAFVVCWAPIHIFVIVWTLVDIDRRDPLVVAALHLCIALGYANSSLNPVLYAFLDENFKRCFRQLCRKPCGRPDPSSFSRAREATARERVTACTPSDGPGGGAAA
Sequence of safety screen panel of human pharmacological targets (Homo sapiens, UniProt P29274) (P29274 whole entry): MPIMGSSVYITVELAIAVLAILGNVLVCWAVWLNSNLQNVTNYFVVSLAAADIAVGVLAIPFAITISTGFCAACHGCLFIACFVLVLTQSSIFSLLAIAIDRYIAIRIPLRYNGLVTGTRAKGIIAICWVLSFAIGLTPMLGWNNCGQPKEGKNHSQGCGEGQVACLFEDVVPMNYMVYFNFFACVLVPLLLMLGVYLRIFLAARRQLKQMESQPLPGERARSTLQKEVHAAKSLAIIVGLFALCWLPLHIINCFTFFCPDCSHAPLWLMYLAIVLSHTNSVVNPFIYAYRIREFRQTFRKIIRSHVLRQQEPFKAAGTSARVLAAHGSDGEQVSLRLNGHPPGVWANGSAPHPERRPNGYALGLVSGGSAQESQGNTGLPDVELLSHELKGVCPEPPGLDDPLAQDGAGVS
Sequence of safety screen panel of human pharmacological targets (Homo sapiens, UniProt P23975) (P23975 whole entry): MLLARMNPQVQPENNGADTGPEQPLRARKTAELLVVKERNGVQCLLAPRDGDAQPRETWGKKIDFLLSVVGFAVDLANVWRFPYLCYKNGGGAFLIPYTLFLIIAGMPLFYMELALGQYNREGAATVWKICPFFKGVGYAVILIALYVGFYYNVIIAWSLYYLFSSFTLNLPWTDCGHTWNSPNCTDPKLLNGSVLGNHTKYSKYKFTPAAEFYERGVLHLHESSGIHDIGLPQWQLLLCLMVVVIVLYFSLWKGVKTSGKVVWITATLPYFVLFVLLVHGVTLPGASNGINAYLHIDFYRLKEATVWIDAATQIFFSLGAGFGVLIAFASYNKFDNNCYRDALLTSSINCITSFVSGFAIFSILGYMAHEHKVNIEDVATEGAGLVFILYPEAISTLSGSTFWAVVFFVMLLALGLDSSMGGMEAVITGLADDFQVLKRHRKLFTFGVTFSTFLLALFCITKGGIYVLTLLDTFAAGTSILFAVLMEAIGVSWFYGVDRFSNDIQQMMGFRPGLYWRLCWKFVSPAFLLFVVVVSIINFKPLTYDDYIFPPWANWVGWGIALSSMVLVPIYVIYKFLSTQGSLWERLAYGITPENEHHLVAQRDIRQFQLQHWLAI
Sequence of safety screen panel of human pharmacological targets (Homo sapiens, UniProt P28223) (P28223 whole entry): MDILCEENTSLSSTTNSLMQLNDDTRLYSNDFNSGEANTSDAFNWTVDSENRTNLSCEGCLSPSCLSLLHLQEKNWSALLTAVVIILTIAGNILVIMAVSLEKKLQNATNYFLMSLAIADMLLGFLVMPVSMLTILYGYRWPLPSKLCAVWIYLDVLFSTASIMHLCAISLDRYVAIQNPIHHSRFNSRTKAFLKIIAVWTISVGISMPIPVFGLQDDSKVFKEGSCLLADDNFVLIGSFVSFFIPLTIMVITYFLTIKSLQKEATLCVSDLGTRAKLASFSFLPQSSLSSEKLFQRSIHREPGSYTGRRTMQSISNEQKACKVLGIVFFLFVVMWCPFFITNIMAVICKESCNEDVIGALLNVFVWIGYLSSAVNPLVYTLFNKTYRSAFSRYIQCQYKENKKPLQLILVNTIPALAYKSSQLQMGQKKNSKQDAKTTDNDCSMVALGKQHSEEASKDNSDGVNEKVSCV
Sequence of safety screen panel of human pharmacological targets (Homo sapiens, UniProt P31645) (P31645 whole entry): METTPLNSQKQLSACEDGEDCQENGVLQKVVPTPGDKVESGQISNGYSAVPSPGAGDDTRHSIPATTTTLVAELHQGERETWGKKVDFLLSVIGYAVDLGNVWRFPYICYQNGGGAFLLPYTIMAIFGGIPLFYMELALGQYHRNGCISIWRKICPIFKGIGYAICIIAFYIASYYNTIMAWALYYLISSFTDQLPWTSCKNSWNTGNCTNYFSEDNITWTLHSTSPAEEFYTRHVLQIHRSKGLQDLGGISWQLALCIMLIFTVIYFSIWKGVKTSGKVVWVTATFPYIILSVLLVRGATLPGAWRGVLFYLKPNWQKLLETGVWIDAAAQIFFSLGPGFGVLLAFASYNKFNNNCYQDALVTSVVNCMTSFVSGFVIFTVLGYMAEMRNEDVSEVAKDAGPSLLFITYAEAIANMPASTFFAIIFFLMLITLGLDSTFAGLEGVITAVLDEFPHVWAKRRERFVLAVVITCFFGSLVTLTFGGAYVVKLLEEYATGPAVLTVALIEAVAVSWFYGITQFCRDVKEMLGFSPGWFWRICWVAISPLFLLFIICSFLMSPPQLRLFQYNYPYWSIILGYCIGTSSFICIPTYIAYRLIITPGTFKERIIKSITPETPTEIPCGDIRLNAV
Sequence of safety screen panel of human pharmacological targets (Homo sapiens, UniProt P06239) (P06239 whole entry): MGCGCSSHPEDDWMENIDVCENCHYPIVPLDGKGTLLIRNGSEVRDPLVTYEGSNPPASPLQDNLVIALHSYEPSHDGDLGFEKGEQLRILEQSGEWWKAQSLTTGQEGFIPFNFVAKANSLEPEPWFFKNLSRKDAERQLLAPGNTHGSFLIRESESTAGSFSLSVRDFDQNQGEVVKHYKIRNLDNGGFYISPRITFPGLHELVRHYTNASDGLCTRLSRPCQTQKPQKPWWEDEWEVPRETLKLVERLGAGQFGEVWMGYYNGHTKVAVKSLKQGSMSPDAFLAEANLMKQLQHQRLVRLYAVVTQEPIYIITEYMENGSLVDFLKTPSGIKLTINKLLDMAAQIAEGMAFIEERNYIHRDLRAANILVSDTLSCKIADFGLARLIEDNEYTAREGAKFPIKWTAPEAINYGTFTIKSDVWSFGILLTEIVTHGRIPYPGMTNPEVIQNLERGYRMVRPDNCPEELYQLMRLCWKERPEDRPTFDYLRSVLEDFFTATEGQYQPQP

| SMILES | inhibition at 10 µM [1] | inhibition at 10 µM [2] | inhibition at 10 µM [3] | inhibition at 10 µM [4] | inhibition at 10 µM [5] | inhibition at 10 µM [6] | inhibition at 10 µM [7] | inhibition at 10 µM [8] | inhibition at 10 µM [9] | inhibition at 10 µM [10] | relative amount in plasma ([11]; 1 hour post VB311 oral gavage) | relative amount in plasma ([11]; 2 hours post VB311 oral gavage) | relative amount in plasma ([11]; 6 hours post VB311 oral gavage) | relative amount in plasma [11, 12] | plasma concentration of VB302 relative to VB311 ([11]; after VB311 administration) |
| --- | --- | --- | --- | --- | --- | --- | --- | --- | --- | --- | --- | --- | --- | --- | --- |
| CCCCCc1cc(O)c2c(c1)OC(C)(C)[C@@H]1CCC(C)=C[C@@H]21 [VB301, Δ9-Terahydrocannabinol, reference compound] | 91% | 87% | -6% | -27% | 92% | 20% | 43% | 90% | 15% | 63% | – | – | – | – | – |
| CCCCCc1cc(O[C@@H]2O[C@H](CO)[C@@H](O)[C@H](O)[C@H]2O)c2c(c1)OC(C)(C)[C@@H]1CCC(C)=C[C@@H]21 [VB302, Δ9THC-1-O-glucopyranoside] | -1% | -31% | -20% | 6% | 11% | -3% | 5% | 16% | -10% | -11% | Minor quantities | Minor quantities | predominant THC-glycoside present in the plasma | relative abundance was greatly increased | 2.2 x |
| CCCCCc1cc(O[C@@H]2O[C@H](CO[C@@H]3O[C@H](CO)[C@@H](O)[C@H](O)[C@H]3O)[C@@H](O[C@@H]3O[C@H](CO)[C@@H](O)[C@H](O)[C@H]3O)[C@H](O)[C@H]2O)c2c(c1)OC(C)(C)[C@@H]1CCC(C)=C[C@@H]21 [VB311] | 3% | 17% | 8% | -6% | 4% | -8% | 0% | 20% | 21% | -4% | relative majority of glycosides present in the plasma | majority of glycosides present in the plasma | extensively modified | almost completely digested | – |
